# Experimental data as given in patent US9351944B1, “Malodor eliminating compositions” (TAKASAGO INTERNATIONAL CORPORATION, priority 2008, dated 2016).
# “And” between values parts separate entries of the source, which are not always exact repeats. Equal values may be shown once.
# Key:
# [1] = Methyl mercaptan suppression by Group A and Group B materials alone and combined (synergistic or additive activity); conditions: in ethanol, room temperature 2 hours; for methyl mercaptan suppression (%) B alone: Group B level 400 ppm
# Description: The synergistic or additive activity of methyl mercaptan inhibition of malodor eliminating materials was tested. 5-40 μl of 1% (w/v) test OE materials in ethanol was placed into a 2 ml GC vial. Ethanol was added into this vial up to 1000 μl. 2 μl of 0.5%(w/v) of sodium methoxide in deionized water was added into the resulting vial, left to sit at room temperature for 2 hours, and analyzed using Multipurpose sampler-GC-PFPD. As a control, ethanol was added instead of test OE materials. Malodor suppression was calculated as described in Example 1 above.
# [2] = Methyl mercaptan chemical suppression by Group A and Group B compounds (GC-PFPD); conditions: test material 200 ppm, malodor material 10 ppm, room temperature 2 hours, ethanol/deionized water
# Description: 2 μl of 0.5%(w/v) of sodium methoxide in deionized water, 20 μl of 1% (w/v) test malodor eliminating material in ethanol, 80 μl of ethanol, and 900 μl of deionized water were added into a 2 ml GC vial, left to sit at room temperature for 2 hours, and analyzed using Multipurpose sampler-GC-PFPD (Gas Chromatography-Pulsed Flame Photometric Detector) (GC-PFPD)MPS2 (Gerstel)—GC; 6890N (Agilent)—PFPD; model 5380 (OI Analytical). As a control, ethanol was added instead of test malodor eliminating materials. The final concentration of test OE material and malodor material are 200 ppm and 10 ppmm, respectively. Malodor suppression was calculated as follows: Malodor Suppression (%)=(GC area of control sample−GC area of test_sample)/GC area of control sample×100
# [3] = Suppression of methyl mercaptan (Example 12, GC-PFPD); conditions: test material 0.2%, malodor material 10 ppm, room temperature 2 hours, triplicate
# Description: 100 μl of 0.01%(w/v) of test malodor material in ethanol, 2 μl of neat flavor oil and 900 μl of deionized water were added into a 4 ml vial and left to sit at room temperature for 2 hours. As a control, ethanol was added instead of the malodor reducing compound. The final concentration of test material and malodor material are 0.2% and 10 ppmm, respectively. 3 ml of ethanol was added into the resulting vial and the thiol level was analyzed using GC-PFPD as described above. Each material was tested in triplicate. Malodor suppression was calculated as described in the example 1 above.
# [4] = Allyl mercaptan chemical suppression by malodor eliminating materials (GC-PFPD); conditions: OE material 0.2%, malodor material 10 ppm, room temperature 2 hours, triplicate
# Description: (§1) The selected OE materials were tested for propyl, allyl, and furfuryl mercaptan suppression. 100 μl of 0.01%(w/v) of test malodor material in ethanol, 2 μl of neat flavor oil and 900 μl of deionized water were added into a 4 ml vial and left to sit at room temperature for 2 hours. As a control, ethanol was added instead of test flavor materials. The final concentration of test OE material and malodor material are 0.2% and 10 ppm, respectively. 3 ml of ethanol was added into the resulting vial and the thiol level was analyzed using GC-PFPD. Each material was tested in triplicate. Malodor suppression was calculated as described in the example 1 above.
# [5] = Furfuryl mercaptan chemical suppression by malodor eliminating materials (GC-PFPD); conditions: OE material 0.2%, malodor material 10 ppm, room temperature 2 hours, triplicate
# Description: as §1
# [6] = Propyl mercaptan chemical suppression by malodor eliminating materials (GC-PFPD); conditions: OE material 0.2%, malodor material 10 ppm, room temperature 2 hours, triplicate
# Description: as §1
Compound,methyl mercaptan suppression (%) [2],methyl mercaptan suppression (%) [3],also measured
"CC(=O)c1ccccc1 [ACETOPHENONE, acetophenone]",–,–,methyl mercaptan suppression (%) A alone ([1]; Group A level 200 ppm): 4%
"CCCCC/C(C=O)=C/c1ccccc1 [AMYL CINN ALD, ALPHA]",5%,–,methyl mercaptan suppression (%) A alone ([1]; Group A level 200 ppm): −3% and −1%
"CC=Cc1ccc(OC)cc1 [ANETHOL NF, anethol]",–,<20%,–
"C=C(C)[C@@H]1CC=C(C)C(=O)C1 [CARVONE-L, carvone-l]",14%,60%,Malodor reduction (%) allyl mercaptan [4]: <20%; methyl mercaptan suppression (%) A alone ([1]; Group A level 200 ppm): 12%; Malodor reduction (%) furfuryl mercaptan [5]: 27%; Malodor reduction (%) propyl mercaptan [6]: <20%
"O=C/C=C/c1ccccc1 [CINN ALD, cinnamic aldehyde]",33%,26%,Malodor reduction (%) allyl mercaptan [4]: <20%; Malodor reduction (%) furfuryl mercaptan [5]: 27%; Malodor reduction (%) propyl mercaptan [6]: 26%
"CC(C)=CCCC(C)=CC=O [CITRAL SYN REFINED (FDO), CITRAL]",25%,–,methyl mercaptan suppression (%) A alone ([1]; Group A level 200 ppm): 1% and 0%
"CC(C)c1ccc(C=O)cc1 [CUMIN ALD, cumin aldehyde]",–,–,methyl mercaptan suppression (%) A alone ([1]; Group A level 200 ppm): −42%
"O=C1CCCCCCCCCCCCCCO1 [CYCLOPENTADECANOLIDE, cyclopentadecanolide]",–,<20%,–
"C/C=C/C(=O)C1=C(C)C=CCC1(C)C [DAMASCENONE, damascenone]",100%,81%,Malodor reduction (%) allyl mercaptan [4]: 67%; methyl mercaptan suppression (%) A alone ([1]; Group A level 50 ppm): 28% and 17%; Malodor reduction (%) furfuryl mercaptan [5]: 67%; Malodor reduction (%) propyl mercaptan [6]: 49%
CCCCCC1CCCC(=O)O1 (stereo not drawn) [DECALACTONE DELTA],–,<20%,–
"CCCCCCC/C=C/C=O [DECENAL, TRANS-2,]",90%,–,–
"CCCCCCCC1CCCC(=O)O1 (stereo not drawn) [DODECALACTONE DELTA, dodecalactone delta]",–,<20%,–
"CCCCCCCCC/C=C/C=O [DODECENAL, TRANS-2,]",53%,–,–
"CCOC(=O)C=Cc1ccccc1 [ETH CINNNAMTE, ethyl cinnamate]",50%,–,methyl mercaptan suppression (%) A alone ([1]; Group A level 200 ppm): 12% and 8%
"CCOC(=O)C(C)CC (stereo not drawn) [ETHYL 2-METHYLBUTYRATE, ethyl 2-methylbutyrate]",–,<20%,–
"CCOC(C)=O [ETHYL ACETATE, ethyl acetate]",–,<20%,–
"CCCC(=O)OCC [ETHYL BUTYRATE, ethyl butyrate]",–,<20%,–
"C/C=C/C(=O)OCC [ETHYL-TRANS-2 BUTENOATE, ethyl-trans-2-butenoate]",73%,–,methyl mercaptan suppression (%) A alone ([1]; Group A level 200 ppm): 64%
"CC/C=C/C=C/C=O [HEPTADIENAL, TRANS-2-TRANS-4]",44%,–,–
CCCC/C=C/C=O [HEPTENAL-TRANS-2],82%,–,–
"CCC/C=C/C=O [HEXENAL, TRANS-2,, trans-2-hexenal]",82%,–,"methyl mercaptan suppression (%) A alone ([1]; Group A level 200 ppm, TRANS-2): 33%"
"CCC/C=C/CO [HEXENOL, TRANS-2-, trans-2-hexenol]",29%,–,–
"CC/C=C\CCOC(=O)CCC [HEXENYL BUTY, CIS-3,]",22%,–,–
"CC/C=C\CCOC(=O)CC(C)C [HEXENYL ISO VAL, CIS-3,]",24%,–,–
"CC/C=C\CCOC(=O)CC [HEXENYL PROP, CIS-3,]",32%,–,–
CCC/C=C/COC(C)=O [HEXENYL-TRANS-2 ACETATE],35%,–,–
"CC(=O)/C=C/C1C(C)=CCCC1(C)C (stereo not drawn) [IONONE-ALPHA, ionone alpha]",14%,50%,Malodor reduction (%) allyl mercaptan [4]: 43%; Malodor reduction (%) furfuryl mercaptan [5]: 46%; Malodor reduction (%) propyl mercaptan [6]: <20%
CC(C)CCOC(=O)C=Cc1ccccc1 [ISOAMYL CINNAMATE],10%,–,–

Compound,methyl mercaptan suppression (%) [2],methyl mercaptan suppression (%) [3],also measured
"CC=Cc1ccc(O)c(OC)c1 [ISOEUGENOL, isoeugenol]",15%,–,–
CC1=CC(=O)CC(C)(C)C1 [ISOPHORONE],31%,–,–
CC(C)OC(=O)C=Cc1ccccc1 [ISOPROPYL CINNAMATE],21%,–,–
"CC/C=C\CC1=C(C)CCC1=O [JASMONE, CIS]",32%,–,–
CC(C)=CCCC(C)C=O (stereo not drawn) [MELONAL],–,<20%,–
"CC1CCC(C(C)C)C(O)C1 (stereo not drawn) [MENTHOL NATURAL, menthol]",–,<20%,–
CC(=O)OC1CC(C)CCC1C(C)C (stereo not drawn) [MENTHYL ACETATE],–,<20%,–
"CC(C)CC=C(C=O)c1ccccc1 [METH 2-PHEN 2-HEXENAL, 5,]",59%,–,–
"COC(=O)C=Cc1ccccc1 [METH CINNAMATE, methyl cinnamate]",36%,–,–
"CC(=O)/C=C/C=C(C)C [METHYL HEPTADIENONE, methyl heptadienone]",–,–,methyl mercaptan suppression (%) A alone ([1]; Group A level 200 ppm): 12% and 6% and 8% and 15%
CCCCCCCC(C)=O [METHYL HEPTYL KETONE],–,<20%,–
"COC(=O)c1ccccc1O [METHYL SALICYLATE EXT PURE, METHYL SALICYLATE]",–,<20%,–
"CCCCCC=CCC(=O)OC [METHYL-3 -NONENOATE, METHYL-3-NONENOATE]",36%,–,methyl mercaptan suppression (%) A alone ([1]; Group A level 200 ppm): 7%
"CC/C=C\CC/C=C/C=O [NONADIEN-1-AL, TRANS-2, CIS-6,]",74%,–,–
"CCCC/C=C/C=C/C=O [NONADIENAL-TRANS-2-TRANS-4, trans-2-trans-4-nonadien-1-al]",42%,–,–
"CCCCCC/C=C/C=O [NONENAL, TRANS-2,]",86%,–,–
"CC/C=C\CCCCCO [NONENOL, CIS 6]",22%,–,–
C=CC(O)CCCCC (stereo not drawn) [OCTEN-1 3-OL],19%,–,–
CCCCC/C=C/C=O [OCTENAL TRANS-2],82%,–,–
C=C(C)C1CC=C(C=O)CC1 (stereo not drawn) [PERILLA ALD],12%,–,methyl mercaptan suppression (%) A alone ([1]; Group A level 200 ppm): 16%
C/C=C(\C)C(=O)OCCc1ccccc1 [PHEN ETH TIGLATE],–,–,methyl mercaptan suppression (%) A alone ([1]; Group A level 200 ppm): 4%
"OCCc1ccccc1 [PHENYL ETHYL ALCOHOL-BETA, phenethyl alcohol beta]",–,<20%,–
"CCC(=O)OCCc1ccccc1 [PHENYLETHYL PROPIONATE, phenyl ethyl propionate]",–,<20%,–
"CC(O)CO (stereo not drawn) [PROPYLENE GLYCOL (SOLVENT), propylene glycol]",–,–,methyl mercaptan suppression (%) B alone [1]: −5%
"Cc1ccc(C(C)C)c(O)c1 [THYMOL, thymol]",–,–,methyl mercaptan suppression (%) B alone [1]: 0%
ISO JASMONE,31%,–,–
"damascone beta [DAMASCONE, BETA]",99%,74%,Malodor reduction (%) allyl mercaptan [4]: 85%; Malodor reduction (%) furfuryl mercaptan [5]: 47%; Malodor reduction (%) propyl mercaptan [6]: 23%
